Where “and” joins values, the source holds several entries; their conditions need not be identical. Identical values can stand only once.
What was measured:
[1] = Renal function (MDRD GFR) at chemotherapy and at follow-up; type: in vivo, human
Protocol: Differences between Pt levels of cisplatin and oxaliplatin treated patients, control cancer patients, and healthy controls were evaluated using the Mann-Whitney U test. The Wilcoxon signed rank test was used to test the difference between the renal function at the time of chemotherapy and at follow-up. Correlations between plasma and pUF level of Pt treated patients were evaluated by the Pearson correlation coefficient. SPSS was used to perform these tests.
Pt levels were proportional to the cumulative dose. […] An association between GSTT1,GSTM1, and GSTP1 genotypes and Pt levels could not be established. The effect of the renal function on Pt levels was evaluated using the glomerular filtration rate (GFR) which was calculated with the 'Modification of Diet in Renal Disease (MDRD)'-formula [21]. […] Figure 3 and 4 show the MDRD GFR for patients at the start of their chemotherapy treatment and at follow-up. […] Long-term plasma Pt concentrations were lower when the GFR at the time of chemotherapy was higher.

calf thymus DNA = assay: Assessment of DNA binding activity of Pt in pUF (ex vivo incubation); conditions: for DNA binding of Pt in patient pUF samples: pUF of two treated patients per drug; for DNA binding of Pt in patient pUF samples / Added Pt bound to DNA: five-day incubation with calf thymus DNA; for Added Pt bound to DNA: parent compound added to pUF of healthy volunteers; for Total binding capacity of equivalent concentrations of parent compound recovered (average): patient pUF, more than 8 months after end of treatment
Protocol: The latter was done to assess the binding capacity of the parent compounds at concentrations in the same range as the patients samples. After a five-day incubation to achieve a maximal Pt-DNA binding, the DNA was precipitated, washed and dissolved in water as described by Brouwers et al. After hydrolysis, the Pt-DNA binding was assessed.

plasma proteins [2] = assay: Ex vivo activity of STS (release of Pt from plasma proteins); type: in vitro ADME, human; conditions: for Percentage of plasma Pt recovered in pUF after STS incubation: 750 μL plasma + 25 μL 250 g/L STS
Protocol: Therefore, 750 μL of plasma were incubated with 25 μL of a 250 g/L STS solution. As control, 750 μL of plasma were incubated with 25 μL of water. After incubation, pUF was prepared and Pt concentrations of the STS incubated samples and control samples were compared. Protein concentrations in the ultrafiltrates were analysed using a 2-D Quant Kit (GE healthcare Bio-Sciences AB, Uppsala, Sweden).

[3] = Long-term Pt levels in plasma of treated patients (ICP-MS); type: in vivo; conditions: patients treated 8 to 75 months before
Protocol: Whole blood samples for Pt analysis were collected in 10 mL EDTA containing tubes (Becton Dickinson Vacutainer Systems, Plymouth, UK). EDTA was preferred above heparin because the fraction peripheral blood mononuclear cells (PBMCs) could be isolated easier from EDTA plasma. […] Plasma was obtained by centrifuging the whole blood samples for 15 min (1,000 g, 4°C). The fraction containing PBMCs was isolated from the whole blood sample using the method described by Pluim et al [13]. PUF was obtained by centrifuging the plasma fraction through 3 and 30 kDa cut-off ultrafiltrate filter (Centriplus Millipore Corporation, Bedford, MA, USA) for 30 min (1,000 g, 20°C). […] All samples were stored at -20°C until analysis.
Pt analyses were performed using an ICP-MS and a validated method described previously [15]. Pt levels were assessed in plasma, pUF, and bound to DNA in PBMCs. DNA was isolated from PBMCs using a method described by Pluim et al [13]. Before ICP-MS analysis, the DNA was hydrolysed in 1% (v/v) HNO3 solution at 70°C. The limit of quantification (LLOQ) of the method was 20 ng/L for plasma, 7.5 ng/L for pUF, and the absolute sensitivity for Pt bound to DNA was 0.75 pg Pt (7.5 fg Pt per μg DNA when using 100 μg DNA). The LLOQs were determined on the basis of five times the noise in blank matrix solutions.

[4] = Long-term Pt levels in plasma ultrafiltrate (pUF) of treated patients (ICP-MS); type: in vivo, human; conditions: pUF prepared after sampling
Protocol: Whole blood samples for Pt analysis were collected in 10 mL EDTA containing tubes (Becton Dickinson Vacutainer Systems, Plymouth, UK). […] Plasma was obtained by centrifuging the whole blood samples for 15 min (1,000 g, 4°C). […] PUF was obtained by centrifuging the plasma fraction through 3 and 30 kDa cut-off ultrafiltrate filter (Centriplus Millipore Corporation, Bedford, MA, USA) for 30 min (1,000 g, 20°C). […] All samples were stored at -20°C until analysis.
Pt analyses were performed using an ICP-MS and a validated method described previously [15]. Pt levels were assessed in plasma, pUF, and bound to DNA in PBMCs.

plasma proteins [5] = assay: Ex vivo assessment of protein binding capacity of Pt in pUF (plasma storage); type: in vitro ADME, human
Protocol: Pt concentrations analysed in pUF prepared after storage were compared to Pt concentrations analysed in pUF which was prepared immediately after blood sampling. Additionally, plasma samples were reanalyzed to assess whether or not Pt concentrations in plasma were reduced during storage due to adsorption to the tubes.

[6] = Effects of determinants on in vivo plasma Pt levels (NONMEM modelling)
Protocol: Additionally, serum creatinine was assessed at the time of study.
Possible relationships between determinants and Pt levels were evaluated using non-linear mixed effects modeling using NONMEM software (Version V1) (GloboMax LLC, Ellicott city, MD, USA). The first order conditional estimation method was used throughout. It was assumed that, due to the long follow-up, the treatment period was negligible compared to the follow-up time. The significance of established relationships was assessed using the likelihood ratio test.

[7] = individual patient plasma samples
[8] = plasma stored at -30°C for 144-278 days
[9] = two-compartment model, per compound

SMILES | GFR at the time of the current study (follow-up) ([1]; in vivo) [mL/min/1.73 m^2] | Median GFR before start of the Pt chemotherapy ([1]; in vivo) [mL/min/1.73 m^2] | DNA binding of Pt in patient pUF samples (calf thymus DNA) | Added Pt bound to DNA (calf thymus DNA) [%] | Total binding capacity of equivalent concentrations of parent compound recovered (average) (calf thymus DNA) [%] | Factor increase of Pt in pUF after STS incubation (plasma proteins [2]; [7]) | Percentage of plasma Pt recovered in pUF after STS incubation (plasma proteins [2]; [7]) | GFR at the time of the current study (follow-up) ([1]; MDRD formula) [mL/min/1.73 m^2] | Median GFR before start of the Pt chemotherapy ([1]; MDRD formula) [mL/min/1.73 m^2] | Plasma Pt levels relative to mean level of unexposed controls [3] [fold] | Percentage of plasma Pt recovered in pUF (average) [4] [%] | Percentage of plasma Pt recovered in pUF after storage (plasma proteins [5]; individual patient samples, 144-278 days of storage at -30°C) | Percentage of plasma Pt recovered in pUF before storage (plasma proteins [5]; individual patient samples, pUF prepared immediately after blood sampling) | Decrease in Pt concentrations in pUF after storage (average) (plasma proteins [5]; [8]) [%] | Plasma Pt concentrations over storage time (plasma proteins [5]; [8]) | Percentage of plasma Pt recovered in pUF (plasma proteins [2]; individual patient plasma samples, control incubation with water) | Increase in Pt pUF concentrations in samples prepared from STS treated plasma (plasma proteins [2]; over four samples per drug) [fold] | First elimination half-life (t1/2) of plasma Pt [6, 9] [months] | Second elimination half-life (t1/2) of plasma Pt [6, 9] [months] | Reduction in long-term plasma Pt levels ([6]; STS co-administration with intra-arterial cisplatin, p < 0.001) [%]
N.N.[Cl][Pt][Cl] [Cisplatin, cisplatin] | 55 | 78 | 1.8% and 2.4% | 21 | 10 | 1.4-fold and 2.7-fold and 2.3-fold and 2.9-fold | 17.5 and 34.9 and 30.7 and 36.6 | – | – | – | – | – | – | – | – | – | – | – | – | –
O=C1[O][Pt]2([NH][C@@H]3CCCC[C@H]3[NH]2)[O]C1=O [Oxaliplatin, oxaliplatin] | – | – | 0.78% and 1.1% | 21 | 4.3 | 1.5-fold and 1.4-fold and 2.0-fold | 40.4 and 46.2 and 39.5 and 38.7 | 61 | 65 | > 30 | 24.2 | 25.2 and 21.2 and 16 and 15.8 | 28.2 and 27.8 and 25.9 and 22.9 | 26 | remained constant over time | 27.2 and 32.2 and 20 and 26.5 | 1.6 | 1.37 | 535 | –
O=S([O-])([O-])=S.[Na+].[Na+] [STS, sodium thiosulfate] | – | – | – | – | – | – | – | – | – | – | – | – | – | – | – | – | – | – | – | 71
